Assay results as given in paper PMC12040169 (PLOS Biology, 2025).

Experiment: in vitro
Conditions: human, hela cells, % viability

SMILES: O=C(c1ccccc1)c1ccc(CNC(=O)C2(c3ccccc3)CCCC2)cc1 [CBK161526]
- viability at 28.5 h, 10 µM: 87.6%

SMILES: Cc1nc(N)nc(N2CCN(C)CC2)n1 [CBK015681]
- viability at 28.5 h, 10 µM: 100%

SMILES: Cc1cccc(CCNC(=O)CC2CCN(C(=O)CC3CCCCC3)CC2)c1 [CBK285964]
- viability at 28.5 h, 10 µM: 114%

SMILES: O=C1Nc2c(cnn2-c2ccc(F)cc2)C2=NCCN12 [CBK284351]
- viability at 28.5 h, 10 µM: 104%

SMILES: Cn1nccc1C(=O)N[C@H]1C2CCCCC2[C@@H]1c1ccccc1 (stereo partly shown) [CBK285127]
- viability at 28.5 h, 10 µM: 102%

SMILES: Cc1cnccc1N1CCN(C(=O)CCCOc2ccccc2)CC1 [CBK304677]
- viability at 28.5 h, 10 µM: 94.8%

SMILES: Nc1nc2c(ccn2[C@H]2C[C@@H](O)[C@@H](CO)O2)c(=O)[nH]1 [CBK201238]
- viability at 28.5 h, 10 µM: 100%

SMILES: Cc1ccccc1-c1ccccc1CC1(C(=O)N(C)C)CCN(C(=O)CC(C)C)CC1 [CBK285714]
- viability at 28.5 h, 10 µM: 93.6%

SMILES: COc1ncc(-c2cnc3[nH]c(=O)n([C@H](C)c4ccccc4)c3n2)cn1 [CBK064401]
- viability at 28.5 h, 10 µM: 85.3%

SMILES: COc1ncc(-c2ccc(NCC(C)C)nc2)c(OC)n1 [CBK036934]
- viability at 28.5 h, 10 µM: 116%

SMILES: CCCOc1ccc(C(=O)C(CN(CC)CC)Oc2ccccc2)cc1 (stereo not shown) [CBK011944C]
- viability at 28.5 h, 10 µM: 94.7%

SMILES: Nc1nc(CCC(=O)N2CCCC(c3cc(O)ncn3)C2)cs1 (stereo not shown) [CBK306976]
- viability at 28.5 h, 10 µM: 89.5%

SMILES: N#CCCN(CC1CCCO1)S(=O)(=O)c1ccc(OC(F)(F)F)cc1 (stereo not shown) [CBK044405]
- viability at 28.5 h, 10 µM: 91.5%

SMILES: CCC(C)Oc1ccccc1OCCN1C(=O)NC(C)(C)C1=O (stereo not shown) [CBK267362]
- viability at 28.5 h, 10 µM: 98.5%

SMILES: O=C(O)CCCn1c(-c2cccc([N+](=O)[O-])c2)nc(=S)c2c1CCCC2 [CBK265657]
- viability at 28.5 h, 10 µM: 101%

SMILES: Cc1ccccc1C(=O)Nc1ccc(F)c(F)c1 [CBK058249]
- viability at 28.5 h, 10 µM: 96.1%

SMILES: N#Cc1ccc(NC(=O)c2ccc(-n3cnnc3)cc2Cl)cc1 [CBK269758]
- viability at 28.5 h, 10 µM: 87.2%

SMILES: CC(=O)Nc1ccc(Nc2ccc([N+](=O)[O-])cc2[N+](=O)[O-])cc1 [CBK260886]
- viability at 28.5 h, 10 µM: 84.6%

SMILES: CCCN(c1nc(C)c(Br)c(OC)n1)S(=O)(=O)c1ccc(C)cc1 [CBK028072]
- viability at 28.5 h, 10 µM: 105%

SMILES: CC12CCCN1CCCN2C(=O)c1c[nH]c2ccccc12 (stereo not shown) [CBK169228]
- viability at 28.5 h, 10 µM: 87.2%

SMILES: COc1ccc2nc(Nc3nc(C)c(C(C)=O)s3)sc2c1 [CBK287483]
- viability at 28.5 h, 10 µM: 94.8%

SMILES: COc1ccccc1CN(CCN(C)C)C(=O)Cc1c(C)[nH]c(=O)[nH]c1=O [CBK286343]
- viability at 28.5 h, 10 µM: 94.2%

SMILES: Cc1cc(C)c(S(=O)(=O)N2CCC(C(=O)Nc3ccc(C(N)=O)cc3)CC2)c(C)c1 [CBK266424]
- viability at 28.5 h, 10 µM: 91.7%

SMILES: CC(=O)N1CC2(CCN(C(=O)C(C)(C)C)CC2)Nc2ccccc21 [CBK284448]
- viability at 28.5 h, 10 µM: 102%

SMILES: Cc1ccc(NC(=O)Cn2c(=O)cc(O)c3ccccc32)cc1 [CBK291116]
- viability at 28.5 h, 10 µM: 95.9%

SMILES: N=c1n(CC(=O)c2ccc(-c3ccccc3)cc2)c2ccccc2n1Cc1ccccc1 [CBK262128B]
- viability at 28.5 h, 10 µM: 99.3%

SMILES: Cc1nc2c(c(=O)[nH]1)CN(Cc1ccc(F)cc1)CC2 [CBK284009]
- viability at 28.5 h, 10 µM: 86.9%

SMILES: COc1ccc2c(c1)OC1(CCN(CC(O)c3ccc(-c4ccccc4)cc3)CC1)CC2O (stereo not shown) [CBK286346]
- viability at 28.5 h, 10 µM: 91.2%

SMILES: CC(C)(C)S(=O)(=O)c1ccc(C(=O)O)s1 [CBK260880]
- viability at 28.5 h, 10 µM: 91.4%

SMILES: O=[N+]([O-])c1cccc(-c2csc(N/N=C\c3cccc(O)c3)n2)c1 [CBK263418]
- viability at 28.5 h, 10 µM: 95.5%

SMILES: Cc1cc(OC(C)C(=O)Nn2cnnc2)ccc1Cl (stereo not shown) [CBK269690]
- viability at 28.5 h, 10 µM: 98.1%

SMILES: CC1CCC(N2CCN(Cc3ccccn3)CC2)CC1 (stereo not shown) [CBK263473]
- viability at 28.5 h, 10 µM: 90.6%

SMILES: CC(C)NS(=O)(=O)c1ccc(NS(=O)(=O)c2cc(C(=O)O)ccc2Cl)cc1 [CBK296951]
- viability at 28.5 h, 10 µM: 99.5%

SMILES: CC(=O)Nc1cccc(-c2cnc(NCc3ccc4c(c3)OCO4)c(C(=O)NCC3COc4ccccc4O3)c2)c1 (stereo not shown) [CBK138473T]
- viability at 28.5 h, 10 µM: 116%

SMILES: CCCn1ncc(CN2CCCC(c3cc4cccnc4[nH]3)C2)c1C (stereo not shown) [CBK284957]
- viability at 28.5 h, 10 µM: 95.1%

SMILES: CC(C)Nc1cc(OCc2cccnc2)ncn1 [CBK115883]
- viability at 28.5 h, 10 µM: 91.3%

SMILES: Cc1cc(C)nc(N2CCC(CC(=O)N3CCCCC3CN3CCCC3)CC2)n1 (stereo not shown) [CBK286254]
- viability at 28.5 h, 10 µM: 95.6%

SMILES: O=C(Cn1c(=O)n(Cc2cccnc2)c(=O)c2ncccc21)NC1CCCC1 [CBK287666]
- viability at 28.5 h, 10 µM: 103%

SMILES: COc1cc(/C=C2/C(=O)NC(=O)N(c3ccc(C)c(Cl)c3)C2=O)ccc1OC(C)C [CBK265156]
- viability at 28.5 h, 10 µM (bulk resorufin, single well): 118%

SMILES: O=S(=O)(Nc1cccc2nonc12)c1ccccc1Br [CBK062577]
- viability at 28.5 h, 10 µM: 102%

SMILES: CC(=O)NCC(=O)N1CCCC2(C/C=C/COc3ccccc3C(=O)NCCNC2=O)C1 (stereo not shown) [CBK291991]
- viability at 28.5 h, 10 µM: 87.1%

SMILES: Brc1ncccc1OCc1ccccc1 [CBK001458]
- viability at 28.5 h, 10 µM: 82.6%

SMILES: Cc1ccc(C(C)C)c(OCCSc2nc3c(N)ncnc3[nH]2)c1 [CBK266941]
- viability at 28.5 h, 10 µM: 94.3%

SMILES: COc1cc2c(cc1OC)C1c3ccccc3NC(c3ccc(F)cc3)N1CC2 (stereo not shown) [CBK286191]
- viability at 28.5 h, 10 µM: 102%

SMILES: Cc1cn2c(nc1=O)OC[C@H]1O[C@@H]2C[C@H]1O [CBK201280]
- viability at 28.5 h, 10 µM: 93.5%

SMILES: COc1ccc(Cl)cc1N1CCNCC1 [CBK013449C]
- viability at 28.5 h, 10 µM (bulk resorufin, single well): 89.4%

SMILES: CN(C)CC(C)(C)CNC(=O)c1ccccc1-n1cccc1 [CBK149600]
- viability at 28.5 h, 10 µM: 92.3%

SMILES: CS(=O)(=O)Nc1nccnc1OC1CCN(CCc2c[nH]c3ccccc23)CC1 [CBK084282]
- viability at 28.5 h, 10 µM: 119%

SMILES: O=C1C2(Cc3ccccc3)CN3CN(C2)CC1(Cc1ccccc1)C3 [CBK261341]
- viability at 28.5 h, 10 µM: 89.9%

SMILES: CCn1nnc(C2=CCCN(C)C2)n1 [CBK034628E]
- viability at 28.5 h, 10 µM: 104%

SMILES: O=C(NCCN1CCN(Cc2ccccc2Cl)CC1)Nc1ccccc1 [CBK268039]
- viability at 28.5 h, 10 µM: 93.4%

SMILES: c1ccc(Cn2cc(-c3cnc(N4CCOCC4)c4nccn34)cn2)cc1 [CBK091289]
- viability at 28.5 h, 10 µM: 79.7%

SMILES: CC(C)Nc1ccc(S(=O)(=O)N(Cc2ccccc2)Cc2ccccc2)cn1 [CBK267307]
- viability at 28.5 h, 10 µM: 84.6%

SMILES: CCN1CCN(C(=O)C2CC(C)=C(C)CC2C(=O)O)CC1 (stereo not shown) [CBK270311]
- viability at 28.5 h, 10 µM: 87.1%

SMILES: O=c1[nH]c(=O)c2ccn([C@H]3C[C@@H](O)[C@@H](CO)O3)c2[nH]1 [CBK201331]
- viability at 28.5 h, 10 µM: 99%

SMILES: Cc1ccc(-n2ncc3c(NCCc4ccc(S(N)(=O)=O)cc4)ncnc32)c(C)c1 [CBK265676]
- viability at 28.5 h, 10 µM: 92.4%

SMILES: O=C(CCN1C(=O)/C(=C\C=C\c2ccccc2)SC1=S)Nc1cccc(C(=O)O)c1 [CBK264798]
- viability at 28.5 h, 10 µM: 109%

SMILES: Cc1sc2c(c1C)c(=O)nc1scc(CC(=O)NCCO)n12 [CBK266726]
- viability at 28.5 h, 10 µM: 96.3%

SMILES: O=C(N[C@H]1CCN2C(=O)N(CCCl)C(=O)[C@@H]2C1)c1cccs1 [CBK289542]
- viability at 28.5 h, 10 µM (bulk resorufin, single well): 90.8%

SMILES: Cc1ccsc1C(=O)N1CCC(c2nn(C)c3ncccc23)CC1 [CBK285102]
- viability at 28.5 h, 10 µM: 96.6%

SMILES: Nc1nc(SCC(=O)N2CCC(c3noc4ccc(F)cc34)CC2)n[nH]1 [CBK267326]
- viability at 28.5 h, 10 µM: 91.4%

SMILES: NC(=S)Nn1c(CCC(=O)O)ccc1-c1ccccc1 [CBK265942]
- viability at 28.5 h, 10 µM: 100%

SMILES: O=C(CN(c1cccc(Cl)c1)S(=O)(=O)c1ccc(Cl)cc1)NCc1ccco1 [CBK265356]
- viability at 28.5 h, 10 µM: 106%

SMILES: Cc1ccc(Cn2c(OCCN(C)C)nc3c2c(=O)n(C)c(=O)n3C)cc1 [CBK134241]
- viability at 28.5 h, 10 µM: 89.3%
